Patent US20070265164A1, “Active Substances for Increasing Pathogenic Defense in Plants and Methods for the Detection Thereof” (Bayer Cropscience GmbH, priority 2004, published 2007)

How the values were obtained:
Format in all cases: in vivo, barley
[1] = tested on: jasmonic acid biosynthesis; experiment: GEP, induction pattern of the jasmonic acid biosynthesis genes; details: compared with the other safeners and resistance inductors
Protocol: Barley plants (cv. Baronesse) were grown in compost-filled pots (diameter: 10 cm) for 10 days in a controlled-environment cabinet under defined light, humidity and temperature conditions (white light, 70% atmospheric humidity, 24° C.). At the time of spray application, the seedlings were approximately 15 cm in size. The test substances selected in this example were molecules which differ markedly in their structure and which have a well documented pronounced safener effect, and other molecules which are known from the literature to have an effect on plant stress and pathogen tolerance (Table 1). The substances were prepared as stock solutions in DMSO (dimethyl sulfoxide) at c=10 mg/ml). This was used for preparing dilutions in water supplemented with 0.2% Agrotin (comprises polyvinyl alcohol, silicones, polysaccharides and pH regulators, manufacturer: Bayer CropScience AG, Monheim, Germany), as wetter, to give the application rates shown in the table. The amount of liquid for the spray application was 800 μl per pot, corresponding to 800 l/ha. For each 800 μl of spray mixture, 16 μl of EC premix: diacetone alcohol=1:6 were additionally added as formulation auxiliaries. The substances listed in Table 1 were applied to the leaves by means of a pneumatic spray pistol. […] The fluorescent data obtained were analyzed with the software Microarray Suite 5 from Affymetrix. […]

Oxophytodienoate (OPDA) = Oxophytodienoate (OPDA) concentration in leaves of treated plants, GC-MS/MS
Protocol: (§1) Barley plants (cv. Baronesse) were grown under the conditions described in Example 1 and treated by spray application with safener isoxadifen-ethyl (S 3). The application rates were chosen as follows:
(§2) (1) 30 [g a.i./ha]; (2) 150 [g a.i./ha]; (3) blank formulation (no active ingredient)
[…] All samples were designed in each case as replications of 3 pots.
(§3) The octadecanoates and jasmonates were processed from the leaves following a procedure described in the literature (Müller A, Düchting P and Weiler E W (2002)), A multiplex GC-MS/MS technique for the sensitive and quantitative single-run analysis of acidic phytohormones and related compounds, and its application to Arabidopsis thaliana. Planta, 216, 44-56).
(§4) 300 mg of plant material were extracted for each measuring point.
(§5) 50 pmol [^13C]2-JA and 100 pmol [17,17,17,18,18-^2H]-cis-OPDA were applied as internal standards. The extracts were purified via aminopropyl anion-exchange chromatography in miniature solid-phase exchanger columns which had been prepared in-house.
(§6) The results are shown in Tables 3a to 3d, the values shown being in each case means of the 3 applications.

Jasmonate (JA) = Jasmonate (JA) concentration in leaves of treated plants, GC-MS/MS
Protocol: as §1, §2
The plant leaves were harvested at different points in time after the treatment (h=hours), viz. after 1 h, 2 h, 4 h, 6 h, 12 h, 24 h and 48 h. All samples were designed in each case as replications of 3 pots.
as §3, §4, §5, §6

Structure (SMILES): CCOC(=O)C1=NOC(c2ccccc2)(c2ccccc2)C1 [S3, Isoxadifen-ethyl]
- Effect on jasmonic acid biosynthesis (induction pattern) [1]: most pronounced
- Oxophytodienoate (OPDA) concentration (Oxophytodienoate (OPDA); 30 g a.i/ha, 0 hours): 2500 pmol/g leaf tissue
- Oxophytodienoate (OPDA) concentration (Oxophytodienoate (OPDA); 30 g a.i/ha, 1 hour): 6500 pmol/g leaf tissue
- Oxophytodienoate (OPDA) concentration (Oxophytodienoate (OPDA); 30 g a.i/ha, 2 hours): 3750 pmol/g leaf tissue
- Oxophytodienoate (OPDA) concentration (Oxophytodienoate (OPDA); 30 g a.i/ha, 4 hours): 7000 pmol/g leaf tissue
- Oxophytodienoate (OPDA) concentration (Oxophytodienoate (OPDA); 30 g a.i/ha, 6 hours): 9000 pmol/g leaf tissue
- Oxophytodienoate (OPDA) concentration (Oxophytodienoate (OPDA); 150 g a.i./ha, 0 hours): 2600 pmol/g leaf tissue
- Oxophytodienoate (OPDA) concentration (Oxophytodienoate (OPDA); 150 g a.i./ha, 1 hour): 2800 pmol/g leaf tissue
- Oxophytodienoate (OPDA) concentration (Oxophytodienoate (OPDA); 150 g a.i./ha, 2 hours): 1800 pmol/g leaf tissue
- Oxophytodienoate (OPDA) concentration (Oxophytodienoate (OPDA); 150 g a.i./ha, 4 hours): 2200 pmol/g leaf tissue
- Oxophytodienoate (OPDA) concentration (Oxophytodienoate (OPDA); 150 g a.i./ha, 6 hours): 5100 pmol/g leaf tissue
- Oxophytodienoate (OPDA) concentration (Oxophytodienoate (OPDA); 150 g a.i./ha, 12 hours): 2400 pmol/g leaf tissue
- Oxophytodienoate (OPDA) concentration (Oxophytodienoate (OPDA); 150 g a.i./ha, 24 hours): 5100 pmol/g leaf tissue
- Oxophytodienoate (OPDA) concentration (Oxophytodienoate (OPDA); 150 g a.i./ha, 48 hours): 1900 pmol/g leaf tissue
- Increase in OPDA concentration relative to blank formulation samples (Oxophytodienoate (OPDA); maximum over rates and times): ≤ 5 times
- Oxophytodienoate (OPDA) concentrations, range over the experiment (Oxophytodienoate (OPDA); summary of Tables 3a, 3b, all rates and times): 1800-9000 pmol/g leaf tissue
- Jasmonate (JA) concentration (Jasmonate (JA); 30 g a.i/ha, 1 hour): 600 pmol/g leaf tissue
- Jasmonate (JA) concentration (Jasmonate (JA); 30 g a.i/ha, 2 hours): 320 pmol/g leaf tissue
- Jasmonate (JA) concentration (Jasmonate (JA); 30 g a.i/ha, 4 hours): 790 pmol/g leaf tissue
- Jasmonate (JA) concentration (Jasmonate (JA); 30 g a.i/ha, 6 hours): 620 pmol/g leaf tissue
- Jasmonate (JA) concentration (Jasmonate (JA); 150 g a.i./ha, 1 hour): 290 pmol/g leaf tissue
- Jasmonate (JA) concentration (Jasmonate (JA); 150 g a.i./ha, 2 hours): 280 pmol/g leaf tissue
- Jasmonate (JA) concentration (Jasmonate (JA); 150 g a.i./ha, 4 hours): 270 pmol/g leaf tissue
- Jasmonate (JA) concentration (Jasmonate (JA); 150 g a.i./ha, 6 hours): 275 pmol/g leaf tissue
- Jasmonate (JA) concentration (Jasmonate (JA); 150 g a.i./ha, 12 hours): 155 pmol/g leaf tissue
- Jasmonate (JA) concentration (Jasmonate (JA); 150 g a.i./ha, 24 hours): 265 pmol/g leaf tissue
- Jasmonate (JA) concentration (Jasmonate (JA); 150 g a.i./ha, 48 hours): 320 pmol/g leaf tissue
- Increase in JA concentration relative to blank formulation samples (Jasmonate (JA); maximum over rates and times): ≤ 5 times
- Jasmonate (JA) concentrations, range over the experiment (Jasmonate (JA); summary of Tables 3c, 3d, all rates and times): 70-800 pmol/g leaf tissue
